The target of the first data set is T1, MUS81/EME1 (Homo sapiens, UniProt Q96NY9).
T1 sequence (Q96NY9 1-551): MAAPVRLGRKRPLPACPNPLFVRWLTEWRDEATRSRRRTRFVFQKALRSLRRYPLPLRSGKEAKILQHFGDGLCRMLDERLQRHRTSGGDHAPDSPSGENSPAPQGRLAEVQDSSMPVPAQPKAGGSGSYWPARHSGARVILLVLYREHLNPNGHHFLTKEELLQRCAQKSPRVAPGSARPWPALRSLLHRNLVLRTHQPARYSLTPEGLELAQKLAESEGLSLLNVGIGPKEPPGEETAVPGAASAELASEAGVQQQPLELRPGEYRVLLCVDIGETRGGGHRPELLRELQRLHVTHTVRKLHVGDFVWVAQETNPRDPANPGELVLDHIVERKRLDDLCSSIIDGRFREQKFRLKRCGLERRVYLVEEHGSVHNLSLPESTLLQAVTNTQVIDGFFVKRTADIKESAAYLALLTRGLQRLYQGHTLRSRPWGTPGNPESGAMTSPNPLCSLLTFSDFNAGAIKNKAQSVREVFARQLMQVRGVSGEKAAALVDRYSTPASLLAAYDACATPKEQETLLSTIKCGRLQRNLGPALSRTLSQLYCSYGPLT
T1 sequence (Q96AY2 1-570 partner): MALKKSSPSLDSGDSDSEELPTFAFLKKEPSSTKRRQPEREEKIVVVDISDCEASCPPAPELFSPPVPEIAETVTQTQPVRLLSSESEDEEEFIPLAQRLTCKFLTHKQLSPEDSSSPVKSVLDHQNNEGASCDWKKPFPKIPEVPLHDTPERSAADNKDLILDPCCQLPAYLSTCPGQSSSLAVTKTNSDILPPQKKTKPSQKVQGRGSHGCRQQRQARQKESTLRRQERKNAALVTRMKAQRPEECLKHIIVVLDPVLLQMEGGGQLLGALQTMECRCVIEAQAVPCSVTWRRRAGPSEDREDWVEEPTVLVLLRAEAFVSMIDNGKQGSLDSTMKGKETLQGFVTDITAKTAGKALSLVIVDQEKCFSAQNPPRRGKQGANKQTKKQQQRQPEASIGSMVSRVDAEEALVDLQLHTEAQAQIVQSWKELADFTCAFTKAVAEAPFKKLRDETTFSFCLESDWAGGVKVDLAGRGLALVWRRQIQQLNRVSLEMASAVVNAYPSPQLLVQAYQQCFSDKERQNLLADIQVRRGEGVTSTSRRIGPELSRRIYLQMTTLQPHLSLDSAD
Nature of the data set: Nuclease inhibition assay, MUS81/EME1 (3′ flap fluorescent DNA substrate, gel readout). The class given is biochemical. The conditions noted are these: 5 nM enzyme, 5 nM 3′ flap substrate, 15 min at 30° C. An excerpt:
In vitro assays were used for the determination of compound's IC50 values for inhibition of individual nucleases, i.e., MUS81/EME1, FEN1, EXO1, and MRE11. To generate IC50 values, concentration of compound was plotted against relative nuclease activity (in %). The dose-response curves were generated from inhibition data, from 5 point serial dilutions of inhibitory compounds, each in triplicate and fitted to a standard sigmoid curve. IC50 values were derived by standard nonlinear regression analysis.
All tested compounds were diluted in 100% DMSO (dimethylsulfoxide) to prepare working stocks with different concentrations. To keep the DMSO concentration constant in every reaction, always 0.5 μl of the compound stock was added to the reaction buffer. The reaction buffer differs depending on the enzyme tested. Also concentration of the compounds in the reaction depends on the particular enzyme, since the inhibitory effect of the compounds vary between the enzymes. Nevertheless, always doubling dilutions in the range 200-0.8 μM was used. The compound was added as the first component in the reaction buffer, followed by the enzyme addition. Short (15 minutes) pre-incubation step followed before the reaction was initiated by addition of DNA substrate (5 nM).
As a negative control, DNA substrate specific for each particular enzyme without the addition of the enzyme and the compound was used. The positive control contained all components of the reaction, except the compound of interest. However, to compensate for solvent effects, DMSO (at a final concentration of 2.5%) was included in the reaction.
For this experiment we prepared short fluorescently labeled oligonucleotide-based DNA substrates with specific structures reflecting the biochemical activities of tested individual nucleases (Table 1). These substrates were prepared by annealing of synthetic oligonucleotides purchased from VBC Biotech. Composition of each substrate is indicated below the table; the corresponding oligonucleotides were combined in equimolar ratios. For visualization, each substrate was labeled by fluorescent dye (fluorescein), which can be detected in the gel using appropriate imaging system (FLA-9000, Fuji) with filters for particular wavelengths (excitation: 485 nm, emission: 535 nm).
Nuclease assays were performed in reaction buffer specific for particular enzyme: MUS81/EME1 (50 mM Tris pH=7.5, 5 mM MgCl2, 1 mM DTT a 100 μg/ml BSA), MRE11 (30 mM Bis-Tris pH=7.0, 50 μg/ml BSA, 1 mM DTT a 250 μM MnCl2), EXO1 and FEN1 (50 mM Tris pH=7.5, 1 mM MgCl2, 1 mM DTT a 100 μg/ml BSA). The individual reactions were prepared by mixing with highly purified enzyme (MUS81/EME1 (5 nM), MRE11 (5 nM), EXO1 (5 nM) or FEN1 (10 nM); purification protocols described below), and different concentration of inhibitor (mentioned above) in corresponding reaction buffer. The final volume of the reaction was 20 μl. After short pre-incubation (15 minutes at room temperature), the reaction was initiated by addition of 5 nM of corresponding fluorescently labeled DNA substrate (3′ flap for MUS81/EME1, 5′ flap for MRE11 and FEN1, 3′ OH for EXO1; see FIG. 1) and incubated for 15 minutes at 30° C. Next, the reaction was stopped and deproteinized by addition of 2 μl of stop buffer, containing 0.1% SDS and 500 μg/ml proteinase K, and incubated for additional 5 minutes at 30° C. Then the loading dye, containing glycerol (60% glycerol, 10 mM Tris pH=7.4, 60 mM EDTA a 0.1% Orange G), was added to each reaction ( 1/10 of the reaction volume), and the whole mixture was subjected to electrophoresis in 10% polyacrylamide native gel (110 V, 40 min, 1× TBE). Fluorescently labeled DNA was detected by FLA-9000 scanner (Fuji) and the result was evaluated using Multi-Gauge V3.2 software (Fuji).
The Mus81/Eme1 expression construct was a kind gift from Dr. Steve West (Cancer Research UK). Briefly, the nuclease complex was purified as follows. […]
For `O=[N+]([O-])c1ccc(-c2cnn3c(O)c(-c4nc5ccccc5n4Cc4ccccc4)nnc23)cc1` [Preparative Example 17B], the IC50 (commonly the concentration at which inhibition is half-maximal) was < 10 µM.

In the case of `Cn1ccc(-c2cnn3c(O)c(-c4nc5ccccc5n4Cc4ccccc4)nnc23)n1` [Preparative Example 17E], the half-maximal inhibitory concentration (IC50) was < 50 µM. On the same count and under the same terms, the figure for `CCc1nn2c(N)c(-c3nc4ccccc4[nH]3)nnc2c1-c1cccc(C(=O)OC)c1` [Preparative Example 5Z] is < 10 µM; for `Nc1c(-c2nc3ccccc3[nH]2)nnc2cc(CO)nn12` [Preparative Example 6] it is > 50 µM.

As to `CCc1nn2c(O)c(-c3nc4ccccc4[nH]3)nnc2c1-c1ccc(F)cc1` [Preparative Example 8A], the half-maximal inhibitory concentration (IC50) is < 10 µM. Still for that read-out and setting: with `Nc1c(-c2nc3ccccc3[nH]2)nnc2c(-c3ccc(F)cc3)cnn12` [Preparative Example 5P] the figure was > 50 µM; with `CS(=O)(=O)c1ccc(-c2cnn3c(O)c(-c4nc5ccccc5n4Cc4ccccc4)nnc23)cc1` [Preparative Example 17A], < 10 µM; with `CCc1nn2c(N)c(-c3nc4ccccc4[nH]3)nnc2c1-c1cccc(-c2ccccc2)c1` [Preparative Example 5Y], < 10 µM. On the same count and under the same terms, the figure for `CC(C)(C)c1cc2nnc(-c3nc4ccccc4[nH]3)c(N)n2n1` [Preparative Example 5F] is < 50 µM; for `CCc1nn2c(N)c(C(N)=O)nnc2c1-c1ccc(F)cc1` [Preparative Example 12] it is > 50 µM. On the same count and under the same terms, the figure for `CCc1cc2nnc(-c3nc4ccccc4[nH]3)c(N)n2n1` [Preparative Example 5B] is < 50 µM; for `CC(C)c1nn2c(N)c(-c3nc4ccccc4[nH]3)nnc2c1-c1ccc(F)cc1` [Preparative Example 5D] it is < 50 µM; for `CCc1nn2c(N)c(-c3nc4ccccc4n3Cc3ccccc3)nnc2c1-c1ccc(F)cc1` [Preparative Example 5M] it is < 50 µM. Turning to `CCc1nn2c(N)c(-c3nc4ccccc4[nH]3)nnc2c1-c1cccc(C(=O)O)c1` [Preparative Example 5Zb], the half-maximal inhibitory concentration (IC50) is < 10 µM. For the compound `Nc1c(-c2nc3ccccc3[nH]2)nnc2cc(-c3ccccc3Cl)nn12` [Preparative Example 5G], the IC50 was < 50 µM. Take `Nc1c(-c2nc3ccccc3[nH]2)nnc2ccnn12` [Preparative Example 5O]: the IC50 is > 50 µM. Still for that read-out and setting: the figure for `Oc1c(-c2nc3ccccc3n2Cc2ccccc2)nnc2c(-c3ccsc3)cnn12` [Preparative Example 17C] is < 50 µM; for `CCc1cc2nnc(-c3nc4ccccc4n3Cc3ccccc3)c(N)n2n1` [Preparative Example 5N] it is < 50 µM; for `CS(=O)(=O)c1ccc(-c2cnn3c(O)c(-c4nc5ccccc5[nH]4)nnc23)cc1` [Preparative Example 18A] it is < 10 µM. Consider `Cn1ccc(-c2cnn3c(O)c(-c4nc5ccccc5[nH]4)nnc23)n1` [Preparative Example 18B], for which the IC50 is < 50 µM.

As for `Oc1c(-c2nc3ccccc3n2Cc2ccccc2)nnc2c(-c3ccncc3)cnn12` [Preparative Example 17D], the concentration for half-maximal inhibition (IC50) is < 10 µM. Regarding `CCc1nn2c(N)c(C#N)nnc2c1-c1ccc(F)cc1` [Preparative Example 11], the IC50 is > 50 µM. The same measure, in the same setting: with `CCc1nn2c(O)c(-c3nc4cc(C)c(C)cc4[nH]3)nnc2c1-c1ccc(F)cc1` [Preparative Example 21] the figure was < 10 µM.

Test system in the next data set: not given
Assay: not given
Details: not given
Regarding `Nc1c(-c2nc3ccccc3[nH]2)nnc2cc(C=O)nn12` [Preparative Example 7], the melting point (commonly the temperature, or range, at which the solid turns liquid) is > 250 °C. `CC(C)(C)[Si](OCc1cc2nnc(-c3nc4ccccc4[nH]3)c(N)n2n1)(c1ccccc1)c1ccccc1` had a melting point of 233.5 to 234 °C. As to `Nc1c(-c2nc3ccccc3[nH]2)nnc2cc(-c3ccccc3-c3ccccc3)nn12` [Preparative Example 5L], the melting point is > 250 °C. With `CCc1nn2c(N)c(-c3nc4ccccc4[nH]3)nnc2c1Br` [Preparative Example 13], the melting point is > 250 °C. For `CCc1nn2c(N)c(C#N)nnc2c1-c1ccc(F)cc1` [Preparative Example 11], the melting point was > 215 °C (dec.).

These data come from patent publication US9969741B2, “Pyrazolotriazines as inhibitors of nucleases” (MASARYKOVA UNIVERZITA, priority 2014, dated 2018).
